The values that follow are results of earlier work, collected in patent US20080286234A1, “Method for treating demyelinating diseases” (priority 2007, published 2008).

The conditions of this series: MS patients; for reduction in the rate of MS relapses / decrease in relapse rate: vs. placebo.

Take glatiramer acetate: the “reduction in the rate of MS relapses / decrease in relapse rate” value is 30-35%. Moreover, where the note is “clinical trials”, the “effect on exacerbations in clinical trials” value was “reduce the number and severity of exacerbations”; the “effect on new, gadolinium-enhanced brain lesions on MRI scans” value is reported as “reduce the number of new, gadolinium-enhanced brain lesions”.
As for “natalizumab: monoclonal antibody against integrin-(4 used to treat multiple sclerosis and Crohn's disease”, the “slowed the progression of disability (as measured by EDSS)” value is 42% and the “reduction in the rate of MS relapses / decrease in relapse rate” value was 67%.
